Experimental data as given in patent US11066368B2, “Process for the preparation and particle size reduction of pirfenidone” (Laurus Labs Limited, priority 2016, dated 2021).

Experiments:
[1] = Particle size distribution after ultra sonication by sonoprocessor (RTUL 10SP-20-3000-SD); type: physicochemical; settings: ultra sonication in water
Procedure: As used herein, the term “particle size distribution” is expressed in terms of D90, D50 and D10, which corresponds to the diameter of 90 percent by volume of the particles, 50 percent by volume of the particles and 10 percent by volume of the particles are present, respectively.
The particle size distribution of pirfenidone is measured utilizing: Instrument model: Malvern; Mastersizer 3000; particle refraction index of sample: 1.700; Absorption: 0.01 and Analysis model: general purpose, normal sensitivity, non-spherical particles.
Water (300 mL) and Pirfenidone (200 gr; Particle size distribution: D10: 1330 μm; D50: 1950 μm and D90: 2840 μm) were charged into reaction vessel at 25° C. to 35° C. and was placed Sonoprocessor into the reaction mass till required particle size was obtained at 25° C. to 35° C. Particle size distribution of the sample with different time interval was monitored by collecting the sample from reaction mass. After achieving the required particle size, stirred the reaction mixture for 30-60 min at 25° C. to 35° C. Further, the reaction mixture temperature was allowed to cool to 0° C. to 5° C. and stirred for 2-3 hrs at same temperature. Filter the solid and washed the wet cake with chilled water (100 mL), dried the solid in an oven under vacuum at 60° C. for 4-6 hours.
The following examples were performed using the above described process with different rpm and time; the obtained results are tabulated below: […]

[2] = milled through a loop mill, US 8,519,140; cited from earlier work

- PSD D10 ([1]; sonication time 30 min): 44 μm
- PSD D50 ([1]; sonication time 30 min): 145 μm
- PSD D90 ([1]; sonication time 30 min): 245 μm
- PSD D10 ([1]; sonication time 60 min): 26 μm
- PSD D50 ([1]; sonication time 60 min): 101 μm
- PSD D90 ([1]; sonication time 60 min): 189 μm
- PSD D10 ([1]; sonication time 120 min): 19 μm
- PSD D50 ([1]; sonication time 120 min): 68 μm
- PSD D90 ([1]; sonication time 120 min): 150 μm
- PSD D10 ([1]; sonication time 180 min): 13 μm
- PSD D50 ([1]; sonication time 180 min): 48 μm
- PSD D90 ([1]; sonication time 180 min): 109 μm
Compound: Cc1ccc(=O)n(-c2ccccc2)c1 [Pirfenidone, 5-methyl-1-phenyl-2-1(H)-pyridone]
- particle size [2]: less than 150 μm
